Where two headings read alike, the source gives them in different places.
Tests used:
Rats = conditions: for toxicity finding: iv 14 days
[1] = Physical and chemical properties: solubility; format: physicochemical; conditions: substance obtained in Example 1
Protocol: Physical and chemical property tests and element analysis were carried out for the substance. Also done were its mass spectra, infrared and ultraviolet spectrum, ^1H and ^13C nuclear magnetic resonance tests. The conditions and results were:
Physical and chemical properties: white or a little yellow powder. Melting point—209˜214° C.

[2] = tested on: cerebral ischemia/reperfusion injury rats; assay: MDA content in cerebral tissue homogenate (TBA method); format: in vivo, rat; conditions: Compound (I) 50 mg/kg, Nimodipine 40 μg/kg iv; 5 h after reperfusion; salt-water group 87.7±27.5; p>0.05 vs normal group
[3] = tested on: cerebral arteria embolisms/reperfusion injury rat model; assay: Measurement of area of cerebral embolisms (TTC staining) after cerebral ischemia/reperfusion; format: in vivo
Protocol: (§1) Prepare cerebral arteria embolisms/reperfusion injury rat model according to Longna method. To bring the animal into a state of narcosis, give an intravenous injection of urethane (0.4 ml/100 g weight). Maintain body temperature of the rat at 37±0.5° C. (anal temperature). Let the rat lie on a plate with face toward the ceiling. Make a cut at the right middle of its neck. By means of microsurgery techniques, separate left neck communis and its branches. Isolate arteria carotis externa. By means of electric solidification, cut off occipital arteria, thyroid superia gland arteria, and arteria phyrynix externa, all of which are setting out from arteria carotis externa. Isolate arteria carotis externa further towards the head end. Tie the arteria carotis externa at a place as far as possible. Clamp the beginning part of the arteria carotis externa to make it close with an artery clamp. Tie a loose knot (with 5-0 silk thread going through the arteria carotis externa) at a place between the artery clamp and the tying thread. […]
Open the cranium and take the whole brain. […] The area of obstructed cerebral tissue was measured with a fully automatic image analysis system (Model IPAS-C, Kontror Co, Germany). […] For this experiment, the average value of those measured of slices 2 and 3 were taken as the measured result for each animal's area of obstruction. […]

[4] = tested on: cerebral arteria embolisms/reperfusion injury rat model; assay: Measurement of water content in brain tissue; format: in vivo; conditions: Compound (I) intravenous injection
[5] = Three kinds of experiments (disability, cancer, mutation)
Source text: Therefore, its cure effects are good.

[6] = tested on: cerebral ischemia/reperfusion injury rats; assay: SOD activity in cerebral tissue homogenate (pyrogallol self-oxidation method); format: in vivo, rat; conditions: Compound (I) 50 mg/kg, Nimodipine 40 μg/kg iv; 5 h after reperfusion; normal 70.30±24.7 u/g, salt-water 46.7±16.6 u/g
Protocol: 38 rats were used. After making cerebral ischemia/reperfusion injury, the rats were randomly divided into groups of contrast (equal volume of physiological salt-water), Nimodipine treatment (40 μg/kg), and Compound (I) treatment (50 mg/kg). […] After another 5 minutes, drug was given iv under tongue. 60 minutes after cerebral ischemia was made, reperfusion was made. After another 5 hours, rat brains were stripped off rapidly according to Gotoh Method. Right and left brain hemispheres were weighed respectively, and were kept in fridge at −70° C.
The tissue to be measured (about 0.3˜0.5) were washed clean with physiological salt-water. Then cold distilled water was used to prepare homogenate on a glass blender. Then centrifugal machine was set at 1,500 rpm to work for 15 minutes, the temperature being 0° C. […]
(1) SOD measurement (pyrogallol self-oxidation method): Take a 15 ml test tube. […] Change of absorbance is measured under conditions of: ultra-violet spectrophotometer (UV 1601 PC, Shimatsu Co., Japan), wavelength of 325 nm, and slit of 2. Then activity units are calculated according to the following formula: Tissue homogenate SOD(u/g cerebral tissue)=(control tube−sample tube)/control tube/0.5×1/cerebral tissue weight (g)

[7] = tested on: cerebral arteria embolisms/reperfusion injury rat model; assay: Pathological exam of nerve cells and nerve fibers (HE, myelin staining); format: in vivo; conditions: iv 50 mg/kg, 10 mg/kg and 2 mg/kg; dosage-dependent
Protocol: as §1, with “thread. At a place close to the knot, cut to block the arteria carotis externa. Put into the arteria carotis externa a 3-0 nylon thread, which is 5 cm long and has a drumstick-like head. Tie a fast knot on the silk thread on the arteria crotis externa to avoid bleeding. Remove the arteria clamp. Push the nylon thread slowly into the arteria carotis externa.” for “thread.”

Acute toxicity test = conditions: in vivo, Mouse
Source text: Results of acute toxicity test for Compound (I) were: […]

[8] = tested on: cerebral arteria embolisms/reperfusion injury rat model; assay: Scanning record of electroencephalogram after cerebral ischemia/reperfusion; format: in vivo; conditions: 1 h block
Protocol: as §1, with “thread. At a place close to the knot, cut to block the arteria carotis externa.” for “thread.”
One needle-type electrode was placed at top forehead. […] Electroencephalogram change outside of skin before and after obstruction was recorded with 8-lead physiological recorder made by Japan Optical-Electric Co.

[9] = tested on: cerebral arteria embolisms/reperfusion injury rat model; assay: Behavior change score (Longa method); format: in vivo; conditions: 5 hours after reperfusion
Protocol: as §1, with “thread. At a place close to the knot, cut to block the arteria carotis externa. Put into the arteria carotis externa a 3-0 nylon thread, which is 5 cm long and has a drumstick-like head. Tie a fast knot on the silk thread on the arteria crotis externa to avoid bleeding. Remove the arteria clamp. Push the nylon thread slowly into the arteria carotis externa.” for “thread.”

| SMILES | toxicity finding (Rats; 100 mg/kg) | toxicity finding (Rats; 10 and 30 mg/kg) | main toxic finding (Rats; iv injection for 14 days, injury correlated positively with dosage) | solubility [1] | MDA content [2] | embolism (infarction) area of cerebral tissue ([3]; Compound (I) 2˜50 mg/kg iv, 1 h ischemia, 5 h after reperfusion, dosage dependent) | cure effects compared with Nimodipine ([3]; iv 50, 10 and 2 mg/kg, overall conclusion over all indexes) | water content increase of cerebral tissue in blocked area [4] | causes disability, cancer, and mutation [5] | SOD activity compared with normal contrast group (false surgery) [6] | degree of denaturalization of nerve fibers [7] | number of nerve cells of necrosis [7] | LD50 (Acute toxicity test; im, intramuscular injection, 95% confidence margin 564.77˜603.79 mg/kg) | LD50 (Acute toxicity test; intravenous injection, 95% confidence margin 346.01˜366.64 mg/kg) | amplitude of electroencephalogram ([8]; 2 mg/kg dosage, 5 h after reperfusion) | amplitude of electroencephalogram ([8]; 50 mg/kg and 10 mg/kg, 5 h after reperfusion (p<0.01)) | behavior obstruction caused by cerebral injuries [9] | behavior scores (0-5) ([9]; salt-water contrast group 3.3±1.0, p>0.05) |
| --- | --- | --- | --- | --- | --- | --- | --- | --- | --- | --- | --- | --- | --- | --- | --- | --- | --- | --- |
| CC(C)=CCC[C@](C)(OCC1OC(CO)C(O)C(O)C1O)C1CC[C@]2(C)C1[C@H](O)CC1[C@@]3(C)CC[C@H](OC4OC(CO)C(O)C(O)C4OC4OC(CO)C(O)C(O)C4O)C(C)(C)C3CC[C@]12C (stereo partly drawn) [Compound (I), 20-(S)-protopanaxadiol-3-[O-β-D-glucopyranosyl (1→2)-β-D-glucopyranosyl]-20-O-β-D-glucopyranoside] | poisonous dosage | minor local stimulation | inflammation of tail vein inner membrane | Very easy to dissolve in lower alcohol, acetone, chloroform, and hot water | 65.8±19 nmol/mg tissue weight | could decrease embolism area of cerebellum tissue | better than that of active contrast drug Nimodipine | could significantly lower water content increase of cerebral tissue in blocked area | does not have these side effects | no significant statistics difference | could relieve the degree of denaturalization of nerve fibers | could decrease the number of nerve cells of necrosis | 584 mg/kg | 356 mg/kg | tendency of improvement of electroencephalogram, but there was no significant statistics difference | could improve electroencephalogram significantly | could be significantly relieved | – |
| COCCOC(=O)C1=C(C)NC(C)=C(C(=O)OC(C)C)C1c1cccc([N+](=O)[O-])c1 (stereo not shown) [Nimodipine, reference compound] | – | – | – | – | 67.0±21.8 nmol/mg tissue weight | – | – | – | – | – | – | – | – | – | – | – | – | 2.9±1.2 scores |

Source: US6897298B2, “Method for extracting a compound from a ginseng spp. plant, ginseng or pseudo-ginseng” (priority 2001, dated 2005)
